Measured values from ChEMBL document CHEMBL4706763, “Targeting IRAK1 for Degradation with PROTACs” (ACS Med Chem Lett, 2021).

Tests used:
[1] = target: T1, von Hippel-Lindau disease tumor suppressor/Interleukin-1 receptor-associated kinase 1 (Homo sapiens, UniProt P51617+P40337); test: Protac activity at VHL/IRAK1 in HEK293T cells assessed as induction of IRAK1 degradation at 10 uM measured after 24 hrs by Western blot analysis relative to control; format: cell-based
Target sequence in this assay (P40337 whole entry, looked up): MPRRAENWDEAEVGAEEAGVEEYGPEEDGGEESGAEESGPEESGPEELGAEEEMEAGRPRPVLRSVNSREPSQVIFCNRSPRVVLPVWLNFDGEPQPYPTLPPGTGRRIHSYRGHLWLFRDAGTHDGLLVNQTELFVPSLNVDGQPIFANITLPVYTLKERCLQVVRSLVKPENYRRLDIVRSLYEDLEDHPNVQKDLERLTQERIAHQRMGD
Target sequence in this assay (P51617 whole entry, looked up): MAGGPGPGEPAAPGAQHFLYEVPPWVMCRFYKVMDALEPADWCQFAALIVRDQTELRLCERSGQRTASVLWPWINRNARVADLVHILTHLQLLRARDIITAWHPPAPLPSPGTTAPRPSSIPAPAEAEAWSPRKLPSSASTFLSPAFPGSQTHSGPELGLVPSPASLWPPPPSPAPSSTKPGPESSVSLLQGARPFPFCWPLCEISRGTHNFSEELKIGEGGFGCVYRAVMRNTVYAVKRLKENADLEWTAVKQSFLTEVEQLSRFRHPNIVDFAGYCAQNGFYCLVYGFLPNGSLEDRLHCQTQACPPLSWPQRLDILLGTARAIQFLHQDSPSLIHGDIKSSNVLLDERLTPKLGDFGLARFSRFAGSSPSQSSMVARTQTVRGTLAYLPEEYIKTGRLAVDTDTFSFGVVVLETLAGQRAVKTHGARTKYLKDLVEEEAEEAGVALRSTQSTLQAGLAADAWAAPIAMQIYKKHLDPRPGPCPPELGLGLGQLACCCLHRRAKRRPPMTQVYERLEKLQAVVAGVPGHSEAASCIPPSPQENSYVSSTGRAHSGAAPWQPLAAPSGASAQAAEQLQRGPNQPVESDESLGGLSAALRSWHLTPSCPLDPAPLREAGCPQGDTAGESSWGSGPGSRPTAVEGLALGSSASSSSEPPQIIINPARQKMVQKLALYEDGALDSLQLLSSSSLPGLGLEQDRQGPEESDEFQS

[2] = target: T1, von Hippel-Lindau disease tumor suppressor/Interleukin-1 receptor-associated kinase 1; test: Protac activity at VHL/IRAK1 in HEK293T cells assessed as induction of IRAK1 degradation measured after 24 hrs by Western blot analysis; format: cell-based
Target sequence in this assay (P51617 whole entry): as the sequence (P51617 whole entry, looked up) above
Target sequence in this assay (P40337 whole entry): as the sequence (P40337 whole entry, looked up) above

| Emax [1] | DC50 [2] | Compound |
| --- | --- | --- |
| 96% | 21 nM | COc1cc(N2CC[C@@H](OCC(=O)N[C@H](C(=O)N3C[C@H](O)C[C@H]3C(=O)N[C@@H](C)c3ccc(-c4scnc4C)cc3)C(C)(C)C)[C@H](C)C2)ccc1NC(=O)c1cccc(-c2ccn[nH]2)n1 |
| 95% |  | COc1cc(N2CC[C@H](OCC(=O)N[C@H](C(=O)N3C[C@H](O)C[C@H]3C(=O)N[C@@H](C)c3ccc(-c4scnc4C)cc3)C(C)(C)C)[C@@H](C)C2)ccc1NC(=O)c1cccc(-c2ccn[nH]2)n1 |

More lines, now with the values behind:

| Compound | Emax [1] | DC50 [2] |
| --- | --- | --- |
| COc1cc(N2CC[C@@H](OCC(=O)N[C@H](C(=O)N3C[C@H](O)C[C@H]3C(=O)N[C@@H](C)c3ccc(-c4scnc4C)cc3)C(C)(C)C)C[C@@H]2C)ccc1NC(=O)c1cccc(-c2ccn[nH]2)n1 | 94% | 13 nM |
| COc1cc(N2CCN(C(=O)OCC(=O)N[C@H](C(=O)N3C[C@H](O)C[C@H]3C(=O)N[C@@H](C)c3ccc(-c4scnc4C)cc3)C(C)(C)C)CC2)ccc1NC(=O)c1cccc(-c2ccn[nH]2)n1 | 90% | 9 nM |
| COc1cc(N2CCC(OCC(=O)N[C@H](C(=O)N3C[C@H](O)C[C@H]3C(=O)NCc3ccc(-c4scnc4C)cc3F)C(C)(C)C)CC2)ccc1NC(=O)c1cccc(-c2ccn[nH]2)n1 | 96% | 13 nM |
| COc1cc(N2CCC(OCC(=O)N[C@H](C(=O)N3C[C@H](O)C[C@H]3C(=O)N[C@@H](C)c3ccc(-c4scnc4C)cc3)C(C)(C)C)CC2)ccc1NC(=O)c1cccc(-c2ccn[nH]2)n1 | 96% | 3 nM |
| COc1cc(N2CCN(C(=O)OCC(=O)N[C@H](C(=O)N3C[C@H](O)C[C@H]3C(=O)NCc3ccc(-c4scnc4C)cc3)C(C)(C)C)CC2)ccc1NC(=O)c1cccc(-c2ccn[nH]2)n1 | 97% | 16 nM |
| COc1cc(N2CCC(OCC(=O)N[C@H](C(=O)N3C[C@H](O)C[C@H]3C(=O)NCc3ccc(-c4scnc4C)cc3)C(C)(C)C)CC2)ccc1NC(=O)c1cccc(-c2ccn[nH]2)n1 | 95% | 16 nM |
